Results published in patent US5912258A, “Thiadiazoleamide derivative and anti-ulcer drug” (Shiseido Co., Ltd., priority 1998, dated 1999).

What was measured:
stress ulcer formation = assay: WIS: Restraint and Water Immersion Stress-Induced Ulcer Inhibition Test; format: in vivo, Male Crj:SD or Slc:SD rats; conditions: rat, 100 mg/kg orally, 7 hours water immersion stress
Protocol: WIS: Restraint and Water Immersion Stress-Induced Ulcer Inhibition Test (i) Meaning The degree of inhibition of the stress ulcer formation is tested. (ii) Method Male Crj:SD or Slc:SD rats (6 to 7-weeek-old) were fasted overnight, but allowed free access to water. Each group has 5 to 8 of these rats. The sample compound was dissolved or suspended in an aqueous solution of 0.3% sodium carboxymethylcellulose or 0.05% Tween 80 and then was orally administered (100 mg/10 ml/kg). To a control group, the vehicle was administered. 10 minutes later, the rats were placed in a stress cage and immersed to the level of xiphoid process in a water bath (21° C.) for 7 hours. At the end of the stress, the rats were sacrificed by inhalation of ether or carbon dioxide. Then, the stomach of each was removed, inflated by injecting 10 ml of 5% formalin neutral buffer solution, and immersed in 1% formalin neutral buffer solution for 30 minutes or more to be fixed. The stomach was incised along the greater curvature and then the length of each erosion in the glandular portion was determined under dissecting microscope. The sum of the length of erosions per stomach was defined as ulcer index (UI). (iii) Judgment Standard […]

gastric mucosa = assay: PD: Gastric Mucosal Integrity Test (gastric mucosal potential difference); format: in vivo, Male Crj:SD rats; design: key: 5: Same as the control with no recognizable damage at all.; 4: Though a slight PD-decreasing tendency suggesting a slight possibility of mucosal damage is found, there is no problem.; 3: Though a weak decrease in PD and a possibility of a weak mucosal damage is recognized, there is no substantial problem.; 2: Medium degree of decrease in PD is found and a mucosal damage is recognized.; 1: Heavy degree of decrease in PD is found and a remarkable mucosal damage is recognized; conditions: rat, 100 mg/kg into the chamber, 60 minutes
Protocol: PD: Gastric Mucosal Integrity Test
In this case, since the sample compound has a necrotizing effect, it is inappropriate as an anti-ulcer medicament.
Therefore, the gastric mucosal potential difference (PD), which reflects the integrity of the gastric mucosa, is measured so as to confirm that the sample compound has no damaging effect on gastric mucosa, which is toxicity at gastric mucosal level.
Male Crj:SD rats (7 to 8-week-old) were fasted overnight, but allowed free access to water, and then, under urethane anesthesia (1.25 g/kg, i.p.), fixed to a cork board on its back. The abdomen of each rat was incised, and a small incision was made in the forestomach. Then, the inside of the stomach was washed with physiological saline heated at 37° C. From the forestomach, along the greater curvature thereof, the stomach was incised without damaging blood vessels. After the height of the cork board was adjusted on a jack, the stomach was mounted on ex vivo chamber. The area of the gastric mucosa exposed to the inside of this chamber was 2.5 cm^2. The inside of the chamber was perfused with physiological saline warmed at 37° C. by micro tube pump. By using an agar bridge containing 3M KCl, the potential difference between the chamber and the abdominal cavity was measured by a PD meter. Here, the rectal temperature was measured to control the body temperature during the experiment. After the PD was sufficiently stabilized, the perfusate was stopped and then 100 mg/10 ml/kg of the sample compound dissolved or suspended in an aqueous solution of 0.5% sodium carboxymethylcellulose or 0.05% Tween 80 was administered into the chamber, while PD was recorded for 60 minutes. To a control, the vehicle was administered.
The change in PD during 60 minutes after the administration of 100 mg/kg of the sample compound was collectively studied and, with reference to the positive control, classified into 5 levels as follows:
5: Same as the control with no recognizable damage at all.
3: Though a weak decrease in PD and a possibility of a weak mucosal damage is recognized, there is no substantial problem.
2: Medium degree of decrease in PD is found and a mucosal damage is recognized.
1: Heavy degree of decrease in PD is found and a remarkable mucosal damage is recognized.

Compound	WIS: ulcer formation inhibitory rate (stress ulcer formation)	PD: change in gastric mucosal potential difference (5 levels) (gastric mucosa)
CCN(CC)CCSc1nnc(NC(=O)c2ccc(C(C)C)cc2)s1 [Example 1, 2-(4-isopropylbenzoyl)amino-5-diethylaminoethylthio-1,3,4-thiadiazole]	83%	3
CC(C)c1ccc(C(=O)Nc2nnc(SCCN(C(C)C)C(C)C)s2)cc1 [Example 2, 2-(4-isopropylbenzoyl)amino-5-diisopropylaminoethylthio-1,3,4-thiadiazole]	80%	5
CCN(CC)CCSc1nnc(NC(=O)c2ccc(C(C)(C)C)cc2)s1 [Example 4, 2-(4-tert-butylbenzoyl)amino-5-diethylaminoethylthio-1,3,4-thiadiazole]	79%	3
CCN(CC)CCSc1nnc(NC(=O)c2ccc(OC/C=C(\C)CCC=C(C)C)cc2)s1 [Example 10, 2-(4-geranyloxybenzoyl)amino-5-diethylaminoethylthio-1,3,4-thiadiazole]	48%	5
CC(C)=CCC/C(C)=C/COc1ccc(C(=O)Nc2nnc(SCCN3CCCCC3)s2)cc1 [Example 12, 2-(4-geranyloxybenzoyl)amino-5-piperidinoethylthio-1,3,4-thiadiazole]	44%	5
CC(C)=CCC/C(C)=C/COc1ccc(C(=O)Nc2nnc(SCc3ccccn3)s2)cc1 [Example 14, 2-(4-geranyloxybenzoyl)amino-5-(2-pyridylmethyl)thio-1,3,4-thiadiazole]	30%	5
CCSc1nnc(NC(=O)c2ccc(OC/C=C(\C)CCC=C(C)C)cc2)s1 [Example 15, 2-(4-geranyloxybenzoyl)amino-5-ethylthio-1,3,4-thiadiazole]	43%	5
